Experiments:
Assay type in all cases: cell-based
[1] = test system: MyH2 mRNA expression in C2C12 cells; assay: MyH2 mRNA expression level of C2C12 cells (real time PCR, corrected by PPIA); conditions: for MyH2 mRNA expression: procedure of Example 3, vs NT
Protocol: (§1) C2C12 cells were suspended in a growth medium to adjust the cell density to 65×10^4 cells/ml. Then, 1.5 ml of the cell suspension was added to each well of a 6-well plate, and the cells were cultured in a 5% CO2 incubator for 24 hours. The growth medium was removed, and 2 ml of a differentiation medium containing 0.5 mM EGT was added. A control group (NT) was subjected to the exactly same operation except that EGT was not contained. The culture medium was removed after 2 days, 1 ml of TRIzol (Invitrogen Corporation) was added to each well, and RNA was collected according to the protocol of TRIzol. The collected RNA was converted into complementary strand DNA with a reverse transcription kit (Takara Bio Inc.). The following primer DNAs (MyH2 [NM_001039545]: forward 5′[…]3′ (SEQ ID NO: 5), reverse 5′[…]3′ (SEQ ID NO: 6), ACTA1 [NM_001272041]: forward 5′[…]3′ (SEQ ID NO: 7), PPIA [NM_008907]: forward 5′[…]3′ (SEQ ID NO: 3), and reverse 5′[…]3′ (SEQ ID NO: 4)) were added to the obtained complementary strand DNA, and the gene expression levels of MyH2, ACTA1, and PPIA were measured by subjecting the mixture to a CFX96 Touch™ real time PCR analysis system (Bio-Rad Laboratories, Inc.) using TB Green™ Premix Ex Tag™ II (Takara Bio Inc.) according to the protocol thereof. Correction was performed by dividing the amounts of expressed MyH2 and ACTA1 mRNA by the amount of expressed PPIA mRNA to calculate the myosin heavy chain 2 (MyH2) and a actin (ACTA1) mRNA expression levels. […] The MyH2 mRNA and ACTA1 mRNA expression levels increased by adding EGT.
C2C12 cells were suspended in a growth medium to adjust the cell density to 65×10^4 cells/ml. Then, 1.5 ml of the cell suspension was added to each well of a 6-well plate, and the cells were cultured in a 5% CO2 incubator for 24 hours. The growth medium was removed, and 2 ml of a differentiation medium containing 0.5 mM EGT, 25 μM edaravone (hereinafter, abbreviated to Edv), or 50 μM Edv was added to each well. Edv is a powerful synthetic antioxidant. The culture medium was exchanged for a new culture medium every other day, and the culture was continued. A control group (NT) was subjected to the exactly same operation except that EGT was not contained. The culture medium was removed after 4 days, 1 ml of TRIzol (Invitrogen Corporation) was added to each well, and RNA was collected according to the protocol of TRIzol. The complementary strand DNA of the mRNA was obtained by treating the collected RNA with a reverse transcription kit (Takara Bio Inc.). The following primer DNAs (MyH2 [NM_001039545]: forward 5′[…]3′ (SEQ ID NO: 5), reverse 5′[…]3′ (SEQ ID NO: 6), PPIA [NM_008907]: forward 5′[…]3′ (SEQ ID NO: 3), and reverse 5′[…]3′ (SEQ ID NO: 4)) were added to the obtained complementary strand DNA, and the gene expression levels of MyH2 and PPIA were measured by subjecting the mixture to a CFX96 Touch™ real time PCR analysis system (Bio-Rad Laboratories, Inc.) using TB Green™ Premix Ex Tag™ II Kit (Takara Bio Inc.) according to the protocol thereof. Correction was performed by dividing the amount of expressed MyH2 mRNA by the amount of expressed PPIA mRNA to calculate the MyH2 mRNA expression level.
(§2) The amounts of MyH2 and ACTA1 mRNA expression of C2C12 cells when the differentiation medium containing only EGT was used, when the differentiation medium containing EGT and AG was used, and when the differentiation medium containing only AG was used were investigated. AA2G(R) produced by Hayashibara Co., Ltd. was used as AG. […]

[2] = test system: ACTA1 mRNA expression in C2C12 cells; assay: ACTA1 mRNA expression level of C2C12 cells (real time PCR, corrected by PPIA); conditions: for ACTA1 mRNA expression: procedure of Example 3, vs NT
Protocol: as §1
as §2, with “AG. The concentration of EGT in the differentiation medium was 0.5 mM, and the concentration of AG was 1.0 mM. The experiment procedure was the same as that of Example 3.” for “AG.”

[3] = test system: C2C12 cells; assay: Microscopic observation of muscle differentiation of C2C12 cells in differentiation medium; conditions: 0.5 mM EGT in differentiation medium, sixth day, vs control without EGT
Protocol: C2C12 cells were suspended in a 10% fetal calf serum-containing Dulbecco's modified Eagle's medium (hereinafter, called a growth medium) to adjust the cell density to 65×10^4 cells/ml. Then, 1.5 ml of the cell suspension was added to each well of a 6-well plate, and the cells were cultured in a 5% CO2 incubator for 24 hours. The growth medium was removed, and 2 ml of 2% horse serum-containing Dulbecco's modified Eagle's medium containing 0.5 mM EGT (hereinafter, called a differentiation medium) was then added to each well. The differentiation medium was exchanged for a new culture medium every other day, and the culture was continued. A control group was subjected to the exactly same operation except that EGT was not contained. The forms of the cells were observed and photographed through a microscope (NIKON CORPORATION: Eclipse Ts2) on the sixth day after exchange for the differentiation medium.

[4] = test system: MyoD mRNA expression in C2C12 cells; assay: MyoD mRNA expression level of C2C12 cells (real time PCR, corrected by PPIA); conditions: 0.1 mM or 0.5 mM EGT, after 2 days
Protocol: C2C12 cells were suspended in a growth medium to adjust the cell density to 65×10^4 cells/ml. Then, 1.5 ml of the cell suspension was added to each well of a 6-well plate, and the cells were cultured in a 5% CO2 incubator for 24 hours. The growth medium was removed, and 2 ml of a differentiation medium containing 0.1 mM or 0.5 mM EGT was then added to each well. A control group (hereinafter abbreviated to NT) was subjected to the exactly same operation except that EGT was not contained. The culture medium was removed after 2 days, 1 ml of TRIzol (Invitrogen Corporation) was added to each well, and the cells were dissolved. The cell solution was collected in an Eppendorf tube, and RNA was collected according to the protocol of TRIzol. The complementary strand DNA of the mRNA was obtained by treating the collected RNA with a reverse transcription kit (Takara Bio Inc.). The following primer DNAs (MyoD [NM_010866]: forward 5[…]3′ (SEQ ID NO: 1), reverse 5′[…]3′ (SEQ ID NO: 2), PPIA [NM_008907]: forward 5′[…]3′ (SEQ ID NO: 3), and reverse 5′[…]3′ (SEQ ID NO: 4)) were added to the obtained complementary strand DNA, and the gene expression levels of MyoD and PPIA were measured by subjecting the mixture to a CFX96 Touch™ real time PCR analysis system (Bio-Rad Laboratories, Inc.) using TB Green™ Premix Ex Taq™ II (Takara Bio Inc.) according to the protocol thereof. […]

`O=C1O[C@H]([C@@H](O)CO)C(O)=C1O` [VC, ascorbic acid] was tested, and the “MyH2 mRNA expression” value ([1]; only VC, 0.5 mM) was “increased” and the “ACTA1 mRNA expression” value ([2]; only VC, 0.5 mM) was “increased”.
In the case of `C[N+](C)(C)[C@@H](Cc1c[nH]c(=S)[nH]1)C(=O)[O-]` [EGT, Ergothioneine], the “differentiation from C2C12 cells to muscle cells / myotube cell formation” value [3] is reported as “more myotube cells were formed”, the “MyoD mRNA expression level (relative to NT = 1)” value [4] is reported as “increased depending on the concentration of EGT” and the “MyH2 mRNA expression level (relative to NT = 1)” value ([1]; 0.5 mM EGT, after 2 days) is reported as “increased”. The “ACTA1 mRNA expression level (relative to NT = 1)” value ([2]; 0.5 mM EGT, after 2 days) was “increased”.
In the case of `CC1=NN(c2ccccc2)C(=O)C1` [Edv, edaravone, reference compound], the “MyH2 mRNA expression level (relative to NT = 1)” value ([1]; 25 μM or 50 μM Edv, after 4 days) is reported as “did not affect” and the “MyH2 mRNA expression level (relative to NT = 1)” value ([1]; 25 μM or 50 μM Edv, after 4 days, listed as edaravone) is reported as “does not influence”.
With `O=C1O[C@H]([C@@H](O)CO)C(O)=C1O[C@H]1O[C@H](CO)[C@@H](O)[C@H](O)[C@H]1O` [AG, ascorbic acid 2-glucoside] the “MyH2 mRNA expression” value ([1]; only AG, 1.0 mM) was “increased” and the “ACTA1 mRNA expression” value ([2]; only AG, 1.0 mM) was “increased”.
